{"source": "patent US20130184270A1", "about": "“SUBSTITUTED 2,3-DIHYDROIMIDAZO[1,2-C]QUINAZOLINE-CONTAINING COMBINATIONS” (priority 2010, published 2013)", "key": {"[1]": {"test_system": "Lu7187 primary human tumor (NSCLC)", "details": "for sensitivity of the model / T/C / animals with disease progression: Lu7187; for animals with disease progression: respective monotherapy groups", "procedure": "(§1) The in vivo combination effects were evaluated in tumor xenograft models in nude mice with either established human tumor cell lines or patient-derived primary tumor models at the MTD and sub-MTD dosages.\nLu7187 primary human tumor was derived from a patient with NSCLC and was xenografted in nude mice. The tumor was propagated in vivo and tumor tissue from one in vivo passage was used for s.c. implantation in the inguinal region of male nude mice. Treatment was started when the tumors were approximately 0.1 cm^3 in size. Treatment was continued until progression of the tumors. Tumor diameters and body weight were monitored t weekly. cA* was dosed at 14 mg/kg, Q2D×10 from day 7 to day 25 (group C, H and I), or 10 mg/kg, BID×1 weekly on day 7, 14, 21 and 28. cB was dosed at either 12.5 mg/kg (group D, F and H), QD, or 25 mg/kg (group E, G and I), QD from day 7 to day 35."}, "[2]": {"test_system": "Lu7343 primary human tumor (NSCLC)", "assay": "patient-derived NSCLC xenograft model, cA plus paclitaxel (text: Lu7187; FIG. 5: Lu7343)", "format": "in vivo, nude mice", "procedure": "as §1\nThe synergistic combination of cA* and palitaxel was also confirmed in a patient-derived NSCLC xenograft model—Lu7187.\nFIG. 5: Dose-dependent tumor growth inhibition in Lu7343 primary human xenograft NSCLC model. Lu7343 primary human tumor was derived from a patient with NSCLC and was xenografted in nude mice. The tumor was propagated in vivo and tumor tissue from one in vivo passage was used for s.c. implantation in the inguinal region of male nude mice. Treatment was started when the tumors were approximately 0.1 cm^3 in size. Treatment was continued until progression of the tumors. Tumor diameters and body weight were monitored t weekly. cA* was dosed at 10 mg/kg, BIDx1 weekly on day 15, 22, and 29. paclitaxel was dosed at either 15 mg/kg, or 25 mg/kg, once a week on day 14, 21 and day 28."}, "[3]": {"test_system": "NCI-H1975, NCI-H1650, HCT116, Colo205, MDA-MB-468 cell lines", "assay": "caspase 3/7 activation assay, example (cell line not named)", "format": "cell-based", "procedure": "The effects of combinations of the present invention were evaluated using combination index isobologram analysis for in vitro assessment. The efficacy parameters were the effects in a 72-hour cell proliferation assay or in a 48-hour caspase 3/7 activation assay. Briefly, cells were plated in 384-well plate with 25 μL medium. […] Experiments were conducted in triplicates. The mapping EC50/IC50 and EC90/IC90 values were calculated using Analyze5 computer program. The corresponding component concentrations of cA and BB (either cB, or Lapatinib, or paclitaxel (as component B)) at the […] were calculated and used for plotting isobolograms. […] The dose-response curve of either cA* or cB alone, or cA* (as component A) plus cB (as component B) with the ratio indicated in the figure, where the top relative concentrations are defined as 1."}, "[4]": {"test_system": "CRC SW620 Tumor Cell Line", "assay": "72-hour cell proliferation assay (Cell Titer Glo), combination index", "format": "cell-based", "details": "Homo sapiens, SW-620; SW620, single agent, 90% inhibition not reached", "procedure": "The effects of combinations of the present invention were evaluated using combination index isobologram analysis for in vitro assessment. The efficacy parameters were the effects in a 72-hour cell proliferation assay or in a 48-hour caspase 3/7 activation assay. Briefly, cells were plated in 384-well plate with 25 μL medium. […] Experiments were conducted in triplicates. The mapping EC50/IC50 and EC90/IC90 values were calculated using Analyze5 computer program. The corresponding component concentrations of cA and BB (either cB, or Lapatinib, or paclitaxel (as component B)) at the […] were calculated and used for plotting isobolograms. […] IC50 and IC90 refers to the IC50 and IC90 obtained from the dose-response curve of either cA* or cB alone, or cA* plus cB with the ratio indicated in the table, where the top relative concentration is defined as 1."}, "[5]": {"test_system": "Co5841 primary human tumor (CRC)", "assay": "Co5841 primary human xenograft CRC model", "format": "in vivo, nude mice", "procedure": "as §1\nFIG. 3: Dose-dependent tumor growth inhibition in Co5841 primary human xenograft CRC model. Co5841 primary human tumor was derived from a patient with CRC and was xenografted in nude mice. The tumor was propagated in vivo and tumor tissue from one in vivo passage was used for s.c. implantation in the inguinal region of male nude mice. Treatment was started when the tumors were approximately 0.1 cm^3 in size. Treatment was continued until progression of the tumors. Tumor diameters and body weight were monitored weekly. cA* was dosed at 14 mg/kg, Q2D×7 from day 6 to day 22 (group C, H and I), or 10 mg/kg, BID×1 weekly on day 6, 13, and 20. cB was dosed at either 12.5 mg/kg (group D, F and H), QD, […]"}}, "note": "Read-outs that look alike come from different tables or passages of the source.", "data": [{"compound": "CC(=O)O[C@H]1C(=O)[C@@]2(C)[C@H]([C@H](OC(=O)c3ccccc3)[C@]3(O)C[C@H](OC(=O)[C@H](O)[C@@H](NC(=O)c4ccccc4)c4ccccc4)C(C)=C1C3(C)C)[C@]1(OC(C)=O)CO[C@@H]1C[C@@H]2O", "note": "[Paclitaxel]", "values": [{"measurement": "sensitivity of the model", "setting": "[1]", "result": "resistant"}, {"measurement": "single agent efficacy", "setting": "[2]; paclitaxel 25 mg/kg (MTD)", "result": "very efficacious"}, {"measurement": "mice with disease progression after stopping the treatment", "setting": "[2]; paclitaxel 25 mg/kg single agent", "result": 60, "unit": "%"}]}, {"compound": "C#Cc1cccc(Nc2ncnc3cc(OCCOC)c(OCCOC)cc23)c1", "note": "[erlotinib, reference compound]", "values": [{"measurement": "sensitivity of the model", "setting": "[1]", "result": "resistant"}]}, {"compound": "COc1cc([C@@H]2c3cc4c(cc3[C@@H](O[C@@H]3O[C@@H]5CO[C@@H](C)O[C@H]5[C@H](O)[C@H]3O)[C@H]3COC(=O)[C@H]23)OCO4)cc(OC)c1O", "note": "[etoposid, reference compound]", "values": [{"measurement": "sensitivity of the model", "setting": "[1]", "result": "resistant"}]}, {"compound": "COc1cc(F)c(F)c(Nc2ccc(I)cc2F)c1NS(=O)(=O)C1(C[C@H](O)CO)CC1", "note": "[cB, (S)—N-(3,4-difluoro-2-(2-fluoro-4-iodophenylamino)-6-methoxyphenyl)-1-(2,3-dihydroxypropyl)cyclopropane-1-sulfonamide]", "values": [{"measurement": "induction of apoptosis (caspase 3/7), single agent", "setting": "[3]; 10 μM", "result": "Neither 10 μM of cB nor 5 μM of cA as single agents could induce apoptosis"}, {"measurement": "IC90", "setting": "[4]", "result": "> 5", "unit": "µM"}, {"measurement": "T/C", "setting": "[1]; cB 12.5 mg/kg daily, day 7 to 35", "result": 0.46}, {"measurement": "T/C", "setting": "[1]; cB 25 mg/kg daily, day 7 to 35", "result": 0.31}, {"measurement": "animals with disease progression", "setting": "[1]", "result": 100, "unit": "%"}, {"measurement": "T/C", "setting": "[5]; cB 12.5 mg/kg daily, day 6 to 23", "result": 0.35}, {"measurement": "animals with disease progression (DP)", "setting": "[5]; cB 25 mg/kg monotherapy", "result": 70, "unit": "%"}]}, {"compound": "COc1c(OCCCN2CCOCC2)ccc2c1N=C(NC(=O)c1cnc(N)nc1)N1CCN=C21", "note": "[cA, 2-amino-N-[7-methoxy-8-(3-morpholin-4-ylpropoxy)-2,3-dihydroimidazo[1,2-c]quinazolin-5-yl]pyrimidine-5-carboxamide]", "values": [{"measurement": "induction of apoptosis (caspase 3/7), single agent", "setting": "[3]; 5 μM", "result": "Neither 10 μM of cB nor 5 μM of cA as single agents could induce apoptosis"}, {"measurement": "IC90", "setting": "[4]", "result": "> 5", "unit": "µM"}, {"measurement": "T/C", "setting": "[1]; cA 10 mg/kg BID weekly (day 7, 14, 21, 28)", "result": 0.88}, {"measurement": "animals with disease progression", "setting": "[1]", "result": 100, "unit": "%"}, {"measurement": "body weight loss of weekly dosing compared with Q2D dosing", "setting": "[1]; mouse, in vivo", "result": "less body weight loss"}, {"measurement": "T/C", "setting": "[5]; cA 10 mg/kg BID weekly (day 6, 13, 20)", "result": 0.49}, {"measurement": "animals with disease progression (DP)", "setting": "[5]; cA 10 mg/kg BID weekly monotherapy", "result": 90, "unit": "%"}, {"measurement": "animals with disease progression (DP)", "setting": "[5]; cA 14 mg/kg Q2D monotherapy", "result": 100, "unit": "%"}, {"measurement": "T/C", "setting": "[5]; cA 14 mg/kg Q2D, day 6 to 22", "result": 0.39}]}]}
